This is an account of results in patent US6403590B1, “Use of certain isoquinolinesulfonyl compounds for the treatment of glaucoma and ocular ischemia” (Alcon Laboratories, Inc., priority 1995, dated 2002).

The subject of series [1] is laser-induced hypertensive primates. Description: IOP in laser-induced ocular hypertensive monkeys (lasered MIOP), topical dosing. In kind it is in vivo, monkey. The following applies: for MIOP IOP % Reduction, 1 hour: 1 hour post-dose; for MIOP IOP % Reduction, 3 hours: 3 hours post-dose; for MIOP IOP % Reduction, 6 hours: 6 hours post-dose. Here is the method:
Monkey intraocular pressure (MIOP) were obtained from laser-induced hypertensive primates in the manner described in Examples 1 and 4 below at 1, 3, and 6 hours post-dose.
(§1) The hydrochloride salt of Compound II, also known as fasudil hydrochloride or just fasudil, was topically administered to eyes of ocular normotensive and hypertensive monkeys, New Zealand Albino (NZA) and Dutch Belted (DB) rabbits.

Series [2] has as its system Bulbar Conjunctiva (conjunctival hyperemia). Nature of the series: Guinea pig conjunctival hyperemia model. The following applies: cumulative incidence; percent of eyes scoring +2 or more; scored 1, 2, 3, 4 hours after instillation. In kind it is in vivo. The method, then:
A guinea pig model was used to assess the potential of the compounds to cause conjunctival hyperemia as measured by vasodilation. Compound was instilled and hyperemia was scored at 1, 2, 3, and 4 hours following dosing. Reported above is the cumulative incidence of hyperemia over the 4 hour period. Incidence of hyperemia (Bulbar Conjunctiva) was calculated as the percent of eyes scoring +2 or more, according to the following graded scale: 0 Normal appearance of vessels at limbus and rectus muscle 1 Enlargement of vessels normally visible at limbus and rectus muscle 2 Branching of vessels at limbus, additional vessels visible 3 Additional vessels visible in open bulbar conjunctival areas 4 Diffuse redness in open bulbar conjunctival areas

In a further series the test system is Dutch Belted (DB) rabbit. Nature of the series: IOP in Dutch Belted rabbits, topical dosing. Type of series: in vivo. Here is the method: as §1
Compound II (hydrochloride) was administered topically to the eyes of Dutch Belted (DB) rabbits in doses of 75 and 150 μg.

Series [3] relates to ocular normotensive monkey. Description: IOP in ocular normotensive monkeys, topical dosing. In kind it is in vivo, cynomolgus monkey. Here is the method: as §1
The effect of repeated doses of Compound II on the magnitude and duration of IOP reduction was evaluated in ocular normotensive monkeys.

Series [4] relates to New Zealand Albino (NZA) rabbit. Description: IOP in New Zealand Albino rabbits, topical dosing. The following applies: four hour dose response. In kind it is in vivo. The method, then:
as §1
A dose study similar to that described in Example 2 was conducted with the NZA rabbit. Compound II (hydrochloride) was administered in a topical ocular fashion in doses of 50, 125 and 250 μg.
Other isoquinolinesulfonamides were topically administered to the eyes of New Zealand Albino (NZA) rabbits.
All drugs were administered to eyes in a topical manner at a dose=500 μg (2×25 μl). All compounds were formulated in phosphate buffered saline containing 0.01% benzalkonium chloride, and in all instances N=7.

On to `O=S(=O)(c1cccc2c(Cl)nccc12)N1CCNCC1` [1-(1-chloro-5-isoquinolinesulfonyl)-piperazine], for which, in series [1] (dose 500 μg), the “MIOP IOP % Reduction, 1 hour” value is 7.9%; the “MIOP IOP % Reduction, 3 hours” value is 11.9%; the “MIOP IOP % Reduction, 6 hours” value worked out at 9.4%. The “Guinea Pig Hyperemia (Cumulative over 4 hours)” value in series [2] worked out at 10%.

As to `CC1CN(S(=O)(=O)c2cccc3cnccc23)C(C)CN1` (stereo not shown) [D, 1-(5-isoquinolinesulfonyl)-2,5-dimethylpiperazine], in series [1] (dose 500 μg), the “MIOP IOP % Reduction, 1 hour” value is on record as 36.3%; the “MIOP IOP % Reduction, 3 hours” value was 32.8%; the “MIOP IOP % Reduction, 6 hours” value amounted to 19.3%. Besides, the “IOP lowering effect” value in series [1] (laser-induced hypertensive primates, compared with the other compounds of Example E) is listed as “markedly superior IOP lowering effect”. The “Guinea Pig Hyperemia (Cumulative over 4 hours)” value in series [2] is recorded as 20%.

As for `CC1CN(S(=O)(=O)c2cccc3cnccc23)CCN1` (stereo not shown) [Example H-7, 1-(5-isoquinolinesulfonyl)-3-methylpiperazine], in series [1] (dose 1000 μg), the “MIOP IOP % Reduction, 1 hour” value worked out at 30.9%; the “MIOP IOP % Reduction, 3 hours” value was 20.9%; the “MIOP IOP % Reduction, 6 hours” value amounted to 11.6%. For the same compound, the “Guinea Pig Hyperemia (Cumulative over 4 hours)” value in series [2] is recorded as 0%.

Regarding `O=S(=O)(c1cccc2cnccc12)N1CCCNCC1` [Fasudil, hexahydro-1-(5-isoquinolinylsulfonyl)-1H-1,4-diazepine], the “IOP lowering” value in the series with Dutch Belted (DB) rabbit is listed as “lowered IOP in the DB rabbit; however, the reduction in IOP was not sustained”; in series [3] (ocular normotensive primates, topical), “effectively lowered IOP”; in series [4], “IOP was marketedly lowered below base line”; in series [1] (ocular hypertensive (laser-induced) primates, topical), “effectively lowered IOP”. In addition, the “IOP reduction after repeated doses” value in series [3] (ocular normotensive monkeys, total of 900 μg in three doses, ten minutes apart) is “significant IOP reduction”. Further, in series [1] (dose 500 μg), the “MIOP IOP % Reduction, 1 hour” value amounted to 21.9%. Moreover, the “MIOP IOP % Reduction, 3 hours” value in series [1] (dose 500 μg) is given as 14.6%. Also, the “MIOP IOP % Reduction, 6 hours” value in series [1] (dose 500 μg) is recorded as 23.4%. In addition, the “Guinea Pig Hyperemia (Cumulative over 4 hours)” value in series [2] is 75%.
